In data set [1] the test system is P. falciparum TM4/8.2 (wild type). Briefly: microbe, parasite or virus in culture. The data set is classed as cell-based, Plasmodium falciparum. As to conditions: read-out: IC50 P. falciparum TM4/8.2 (WT). The text has this:
(§1) In Vitro Antimalarial Activites Against P. falciparum and Cytotoxicity Towards Mammalian Cells (Vero Cells)

Data set [2] deals with P. falciparum V1/S (N51I + C59R + S108 + I164L). The data set can be described thus: microbe, parasite or virus in culture. Particulars: in vitro, quadruple mutant strain V1/S, read-out: IC50 P. falciparum V1/S. The class given is cell-based, Plasmodium falciparum.
Excerpt: as §1

Data set [3] addresses quadruple mutant N51I + C59R + S108N + I164L (QM) pfDHFR (Plasmodium falciparum, UniProt P13922, I164L/N51I). Briefly: Inhibition of quadruple mutant pfDHFR (Ki). The class given is biochemical. On the procedure: (§2) The synthesized 2,4-diamino-6-ethylpyrimdine derivatives as the hydrochloride salts were tested for the activities against Plasmodium falciparum (P. falciparum) according to the standard methods. These include the inhibition of dihydrofolate reductase (DHFR) enzymes of P. falciparum including, wild type (WT) and quadruple mutants (N51IC59RS108NI164L) (QM). The inhibition was expressed as inhibition constants (Ki) in nano molar (nM).

The target of another data set is wild type (WT) pfDHFR (Plasmodium falciparum, UniProt P13922, N108S/R59C). The data set can be described thus: Inhibition of wild type pfDHFR (Ki). The data set is classed as biochemical. On the procedure:
as §2

A further data set can be described thus: in vitro. As to conditions: African green monkey.
Excerpt: as §1

Data set [4] concerns the target T1, Human dihydrofolate reductase (hDHFR) (Homo sapiens, UniProt P00374).
T1 sequence (P00374 1-187): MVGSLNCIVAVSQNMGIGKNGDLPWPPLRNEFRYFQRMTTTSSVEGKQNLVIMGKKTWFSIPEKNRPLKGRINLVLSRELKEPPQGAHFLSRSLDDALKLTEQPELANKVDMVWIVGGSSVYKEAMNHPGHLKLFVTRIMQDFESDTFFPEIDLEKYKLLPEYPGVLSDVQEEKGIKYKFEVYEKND
The data set can be described thus: Inhibition of human dihydrofolate reductase (Ki). The class given is biochemical. Particulars: human DHFR; hydrochloride salts.

The test system of another data set is Vero cells. Briefly: in vitro. As to conditions: read-out: Cytotoxicity against Vero cells (IC50); Vero cells.
Excerpt: as §1

The mark [5] stands for this setting: Plasmodium falciparum, in vitro, wild-type strain TM4/8.2.

The results in this text go back to US11028072B2, “2,4-diamino-6-ethylpyrimidine derivatives with antimalarial activities against Plasmodium falciparum” (National Science and Technology Development Agency, priority 2015, dated 2021).

Read-outs that look alike come from different tables or passages of the source.

wild type (WT) pfDHFR, sequence (P13922 whole entry R59C/N108S): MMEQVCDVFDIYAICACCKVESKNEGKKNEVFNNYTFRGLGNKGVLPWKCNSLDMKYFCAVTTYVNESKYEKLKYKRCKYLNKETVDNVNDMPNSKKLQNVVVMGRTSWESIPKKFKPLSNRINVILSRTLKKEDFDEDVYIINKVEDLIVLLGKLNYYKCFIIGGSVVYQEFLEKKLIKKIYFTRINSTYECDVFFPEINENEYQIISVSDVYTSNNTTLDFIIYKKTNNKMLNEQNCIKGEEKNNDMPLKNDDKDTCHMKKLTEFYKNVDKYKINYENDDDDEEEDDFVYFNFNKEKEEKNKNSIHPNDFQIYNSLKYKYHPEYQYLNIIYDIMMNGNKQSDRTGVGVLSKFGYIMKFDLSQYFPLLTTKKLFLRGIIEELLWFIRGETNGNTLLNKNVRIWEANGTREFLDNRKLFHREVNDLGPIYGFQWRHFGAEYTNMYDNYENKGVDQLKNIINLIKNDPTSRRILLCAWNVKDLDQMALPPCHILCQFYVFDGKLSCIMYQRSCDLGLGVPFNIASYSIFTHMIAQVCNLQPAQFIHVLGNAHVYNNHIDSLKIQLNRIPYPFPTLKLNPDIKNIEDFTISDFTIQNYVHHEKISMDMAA
quadruple mutant N51I + C59R + S108N + I164L (QM) pfDHFR, sequence (P13922 whole entry N51I/I164L): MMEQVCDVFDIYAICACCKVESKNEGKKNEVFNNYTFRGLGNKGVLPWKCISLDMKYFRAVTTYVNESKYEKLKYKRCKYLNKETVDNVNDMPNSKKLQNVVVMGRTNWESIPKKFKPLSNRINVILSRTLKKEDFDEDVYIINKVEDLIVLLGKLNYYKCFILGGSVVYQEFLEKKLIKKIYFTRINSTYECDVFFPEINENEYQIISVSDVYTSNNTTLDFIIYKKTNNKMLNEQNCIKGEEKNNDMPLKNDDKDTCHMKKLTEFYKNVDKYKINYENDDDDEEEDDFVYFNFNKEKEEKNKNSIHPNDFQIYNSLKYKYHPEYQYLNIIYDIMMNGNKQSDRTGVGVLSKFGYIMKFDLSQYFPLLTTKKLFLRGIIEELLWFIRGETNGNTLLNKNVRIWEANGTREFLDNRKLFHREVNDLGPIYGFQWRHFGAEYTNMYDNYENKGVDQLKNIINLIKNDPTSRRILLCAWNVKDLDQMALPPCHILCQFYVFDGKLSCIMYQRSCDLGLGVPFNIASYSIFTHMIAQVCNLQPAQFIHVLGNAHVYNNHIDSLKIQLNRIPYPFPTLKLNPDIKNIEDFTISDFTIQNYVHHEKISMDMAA

Consider `CCc1nc(N)nc(N)c1-c1cn(-c2cccc(C(=O)O)c2)nn1.Cl` [Compound 2, 2,4-diamino-6-ethyl-5-(1-(3-(carboxy)phenyl)-1H-1,2,3-triazol-4-yl)pyrimidine Hydrochloride], for which the melting point – broadly, the temperature, or range, at which the solid turns liquid – was 205 to 207 °C. For the same compound, the IC50 in data set [1] (setting [5]) was above 10000 nM. The IC50 in data set [2] (Plasmodium falciparum) is above 10000 nM. Also, the Ki (as a rule, the dissociation constant of the complex between target and ligand, obtained from inhibition or displacement) in data set [3] came to 6650 ± 409 nM. Besides, the affinity on wild type (WT) pfDHFR, expressed as Ki, was 1030 ± 89.3 nM. In addition, the IC50 in “in vitro” is above 10000 nM. Moreover, the Ki in data set [4] is above 100000 nM.
`CCc1nc(N)nc(N)c1OCc1cn(-c2cccc(C(=O)O)c2)nn1.Cl` [Compound 16, 2,4-diamino-6-ethyl-5-((1-(3-(carboxy)phenyl)-1H-1,2,3-triazol-4-yl)methoxy)pyrimidine Hydrochloride]: the melting point was 197.5 to 199.5 °C. The IC50 in data set [1] (setting [5]) stood at 600 ± 240 nM. Moreover, the IC50 in data set [2] (Plasmodium falciparum) was above 25000 nM. Besides, the Ki in data set [3] was found to be 6.18 ± 0.6 nM. The same compound displayed a Ki at wild type (WT) pfDHFR of 0.27 ± 0.03 nM. In addition, the IC50 in the data set “in vitro” was above 25000 nM. Also, the Ki in data set [4] was 817 ± 145 nM.
`CCc1nc(N)nc(N)c1OCCCOc1ccccc1CCC(=O)O` [Compound P218, reference compound]: the figures for the IC50 (in data set [1]; in data set [2]; in the data set with Vero cells) were 4.6 ± 1.9 nM, 56 ± 20 nM and above 10000 nM, respectively. The Ki in data set [4] was 17.4 ± 3.8 nM.
`CCc1nc(N)nc(N)c1OCc1csc(-c2cccc(C(=O)O)c2)n1.Cl` [Compound 66, 2,4-diamino-6-ethyl-5-((2-(3-(carboxy)phenyl)thiazol-4-yl)methoxy)pyrimidine Hydrochloride] came in with a melting point of 217.5 to 219 °C. Further, in data set [1] (setting [5]), the IC50 is 2170 ± 540 nM. The IC50 in data set [2] (Plasmodium falciparum) was above 10000 nM. For the same compound, in data set [3], the Ki was determined as 36.7 ± 4.79 nM. In addition, the Ki on wild type (WT) pfDHFR worked out at 0.86 ± 0.1 nM. The compound also had an IC50 in the data set “in vitro” above 10000 nM. Moreover, the Ki in data set [4] turned out to be 102 ± 5.26 nM.
`CCc1nc(N)nc(N)c1OCCCc1cc(-c2cccc(C(=O)O)c2)no1.Cl` [Compound 49, 2,4-diamino-6-ethyl-5-(3-(3-(3-(carboxy)phenyl)isoxazol-5-yl)propoxy)pyrimidine Hydrochloride] displayed a melting point of 219 to 220.5 °C. Moreover, the IC50 in data set [1] (setting [5]) was determined as 7 ± 1.5 nM. Further, the IC50 in data set [2] (Plasmodium falciparum) came to 130 ± 40 nM. Moreover, the Ki in data set [3] was 0.29 ± 0.01 nM. Further, the Ki at wild type (WT) pfDHFR was found to be 0.19 ± 0.02 nM. The compound also registered an IC50 in “in vitro” above 100000 nM. Further, in data set [4], the Ki amounted to 12.6 ± 1.43 nM.
Turning to `CCc1nc(N)nc(N)c1OCc1cc(-c2ccc(OC)cc2)no1` [Compound 42], the IC50 is 1190 ± 360 nM in data set [1] (setting [5]), above 25000 nM in data set [2] (Plasmodium falciparum) and above 25000 nM in “in vitro”. For the same compound, the Ki in data set [3] worked out at 64.4 ± 7.59 nM; on wild type (WT) pfDHFR it was 1.15 ± 0.18 nM; in data set [4] it was 1660 ± 76.7 nM.
As for `CCc1nc(N)nc(N)c1OCc1cn(-c2cccc([N+](=O)[O-])c2)nn1` [Compound 14], the results for the IC50 (in data set [1] (setting [5]); in data set [2] (Plasmodium falciparum); in the data set “in vitro”) were 3420 ± 610 nM, 4430 ± 1130 nM and above 50000 nM, respectively. Further, the figures for the Ki (in data set [3]; on wild type (WT) pfDHFR; in data set [4]) were 237 ± 41.7 nM, 8.62 ± 1.15 nM and above 500000 nM, respectively.
As for `CCc1nc(N)nc(N)c1OCc1cc(-c2ccc([N+](=O)[O-])cc2)no1` [Compound 43], the IC50 in data set [1] (setting [5]) is 33200 ± 14200 nM; in data set [2] (Plasmodium falciparum), above 50000 nM; in “in vitro” it was above 50000 nM. The Ki in data set [3] is 306 ± 36.5 nM; on wild type (WT) pfDHFR, 4.02 ± 0.57 nM; in data set [4] it was above 100000 nM.
